Columns and labels:
[1] = test system: tumors generated from SK-N-BE(2) spheroids; test: In vivo xenograft of tumors generated from SK-N-BE(2) spheroids; set-up: species or system athymic nude mice (nu/nu); settings: 100 mg/kg daily by oral gavage, 21 days of treatment, nude mice
Procedure: SK-N-BE(2) neuroblastoma spheroids (15-day-old) were dissociated by trypsinization, washed with stem cell specific medium and counted. 1×10^5 cells were mixed (1:1 volume) with EGF-reduced matrigel (BD Bioscience, San Jose, Calif.) to make total volume of 0.1 ml. The cell mixture (0.1 ml) was injected subcutaneously (s.c.) into flanks of 6-week-old female nude athymic mice (nu/nu mice; Charles River Laboratories, Wilmington, Mass.). The animals were housed at 25° C. with a 12-h light/12-h dark cycle in laminar flow cabinets under specific pathogen-free conditions and given sterile water and food ad libitum. Engrafted mice were inspected for tumor appearance, and tumor growth was measured on every fourth day using a caliper. Tumor volume was calculated using the ellipsoid formula (length×width×height×0.5). […]
To assess whether metformin has inhibitory effects on the tumorigenicity of neuroblastoma stem cells, tumors were generated from neuroblastoma stem cells by inoculating tumor cells from SK-N-BE(2) spheroids (15-day-old) subcutaneously in to the flank region of athymic nude mice. […] The size of tumors was measured on every fourth day, and after 21 days of metformin treatment tumors were harvested and sizes were measured.

SK-N-BE(2) cells [2] = test: Immunofluorescence staining of cleaved caspase-3 and sox2 in SK-N-BE(2) monolayer cells; type: cell-based, human; settings: metformin 10 mM, 2 days
Procedure: Neuroblastoma cells grown in Lab-TekII chamber slides (Fisher Scientific, Pittsburgh, Pa.) were treated with metformin in complete culture medium. After treatments, cells were washed with 1×PBS, fixed with 4% paraformaldehyde/PBS for 20 min, and incubated in 1×PBS buffer containing 0.1M glycine and 0.3% Triton X-100 for 30 min at room temperature. Cells were washed with 1×PBS for 4 times (10 min each) and blocked with 5% immunoglobulin (IgG)-free bovine serum albumin (BSA; Jackson ImmunoResearch Laboratories, West Grove, Pa.) in 1×PBS for overnight at 4° C. Cells were incubated with antibodies raised against sox2, oct4 and nanog, and active form of caspase-3 diluted in 2.5% BSA+0.3% Triton X-100 in PBS for overnight at 4° C. Primary antibodies were detected with secondary antibodies conjugated with AlexaFluor-488 or AlexaFluor-568 for 2 h at room temperature. After washing with 1×PBS, cells were mounted with antifade Vectashield™ mounting media (Vector Laboratories, Burlingame, Calif.), and signals were visualized under Nikon™-E600 fluorescence microscope. Nuclei were stained with 4′, 6-diamidino-2-phenylindole (DAPI; Sigma). […]

SK-N-BE(2) spheroids = test: Immunofluorescence of cleaved caspase-3 in SK-N-BE(2) spheroids; type: cell-based, human; settings: metformin-treated SK-N-BE(2) spheroids
Procedure: Neuroblastoma cells grown in Lab-TekII chamber slides (Fisher Scientific, Pittsburgh, Pa.) were treated with metformin in complete culture medium. After treatments, cells were washed with 1×PBS, fixed with 4% paraformaldehyde/PBS for 20 min, and incubated in 1×PBS buffer containing 0.1M glycine and 0.3% Triton X-100 for 30 min at room temperature. Cells were washed with 1×PBS for 4 times (10 min each) and blocked with 5% immunoglobulin (IgG)-free bovine serum albumin (BSA; Jackson ImmunoResearch Laboratories, West Grove, Pa.) in 1×PBS for overnight at 4° C. Cells were incubated with antibodies raised against sox2, oct4 and nanog, and active form of caspase-3 diluted in 2.5% BSA+0.3% Triton X-100 in PBS for overnight at 4° C. Primary antibodies were detected with secondary antibodies conjugated with AlexaFluor-488 or AlexaFluor-568 for 2 h at room temperature. After washing with 1×PBS, cells were mounted with antifade Vectashield™ mounting media (Vector Laboratories, Burlingame, Calif.), and signals were visualized under Nikon™-E600 fluorescence microscope. Nuclei were stained with 4′, 6-diamidino-2-phenylindole (DAPI; Sigma).

sox2 = test: Western blot of stem cell marker protein sox2 in metformin-treated SK-N-BE(2) cells; type: cell-based, human; settings: metformin 1, 10 and 20 mM, 2 days, vs untreated control
Procedure: (§1) SH-SY5Y, IMR-32, SK-N-BE(2) and SKNF-1 human neuroblastoma cells were purchased from The American Type Culture Collection (ATCC; Manassas, Va.), and NGP cells were kind gift from Garrett M. Brodeur (The Children's Hospital of Philadelphia, Philadelphia, Pa.). Cells were maintained as monolayer in Dulbecco's Modified Eagle's Medium (DMEM) containing 10% fetal bovine serum (FBS; Atlanta Biologicals, Lawrenceville, Ga.) and 1% antibiotic-antimycotic solution (100 unit/ml penicillin, […]; Gibco, Grand Island, N.Y.) at 37° C. in a humidified incubator with 5% CO2. For all the experiments, cell culture passages from 4-12 were used.
(§2) Cells, either from monolayer or from spheroids, were dissociated by trypsinization, washed with 1× phosphate buffered saline (PBS), pH 7.5, and lysed with 1× cell lysis buffer (Cell Signaling Technology, Danvers, Mass.) containing phenylmethylsulfonyl fluoride (PMSF) and protease inhibitors (aprotinin and leupeptin) for 30 min on ice. […] Protein concentration was determined by bicinchoninic acid method using BCA protein assay kit (Pierce/Thermo-scientific, Waltham, Mass.). Equal amount of proteins were diluted with 5×Laemmli samples loading buffer, boiled for five minutes, separated on sodium dodecyl sulfate (SDS)-polyacrylamide gel, and analyzed by Western blotting. […]

SK-N-BE(2) tumors = test: Immunohistochemistry of cleaved caspase-3 and sox2 in SK-N-BE(2) tumor sections; type: in vivo, athymic nude mice (nu/nu); settings: tumors from mice treated with metformin 100 mg/kg daily oral
Procedure: For tumor tissue, paraformaldehyde-fixed paraffin-embedded tumor sections (5 μm thick) were deparaffinized in xylene, rehydrated with sequential immersion in graded ethanol (100%, 95%, 85%, 70% and 50%). Antigen unmasking was carried out by boiling slides in 10 mM sodium citrate buffer, pH 6.0, at 95° C. for 30 min. After cooling down at room temperature, sections were incubated with 0.1M glycine+0.3% Triton X-100/PBS for 30 min, and were blocked with 10% IgG-free BSA in 1×PBS for overnight at 4° C. Sections were incubated with primary antibodies diluted in 5% IgG-free BSA+0.3% Triton X-100/PBS (1:100 dilution) for overnight at 4° C. Primary antibodies were detected as described in previous paragraph. Primary antibodies used were: sox2, oct4 and nanog, and active form of caspase-3.
To determine if metformin inhibition of tumor growth resulted from apoptotic cell death in tumor stem cells, immunohistochemistry was performed by staining paraffin-embedded tumor sections with antibodies specific for active cleaved form of caspase-3 (an indicator of apoptosis) and stem cell specific marker sox2.

nanog = test: Western blot of stem cell marker protein nanog in metformin-treated SK-N-BE(2) cells; type: cell-based, human; settings: metformin 1, 10 and 20 mM, 2 days, vs untreated control
Procedure: as §1, §2

oct4 = test: Western blot of stem cell marker protein oct4 in metformin-treated SK-N-BE(2) cells; type: cell-based, human; settings: metformin 1, 10 and 20 mM, 2 days, vs untreated control
Procedure: as §1, §2

SK-N-BE(2) cells [3] = test: Secondary spheroid formation assay (self-renewal); type: cell-based, human; settings: metformin at lower concentration (0.1 mM), 20 days
Procedure: (§3) For spheroid formation, adherent cells were trypsin digested (0.25% Trypsin-EDTA) for 3-4 min at 37° C., washed and suspended in the serum-free stem cell specific medium [DMEM/F-12 medium (Lonza, Switzerland) supplemented with 1% N-2 supplement, 2% B-27 without vitamin A, 20 ng/ml human recombinant epidermal growth factor (hrEGF), 20 ng/ml human recombinant basic fibroblast growth factor (bFGF) and 1% antibiotic-antimycotic solution; all from Gibco]. The dispersed single cells were plated at density of 1,000 cells/well in Costar ultra-low attachment six-well plates (Corning Inc., Corning, N.Y.), and treated with indicated concentrations of metformin. […]
To test the effect of metformin in neuroblastoma spheroid formation, SK-N-BE(2) cells were grown in stem cell specific medium on ultra-low attachment plates and the growth of spheroid formation was monitored For spheroid formation assays, SK-N-BE(2) cells were seeded at density of 1000 cells per well in six-well plate in stem cell-specific medium with or without metformin (0.1, 0.5, 1, 10 and 20 mM). After 20 days, pictures of formed spheroids were taken and the number of spheroids equal to or larger than 100 μm in size (termed primary spheroids) was counted (FIG. 7 at A and B). […] Secondary spheroid formation (as an indicator of self-renewal potential of neuroblastoma spheres) was analyzed. […]

SK-N-BE(2) cells [4] = test: Primary spheroid formation assay; type: cell-based, human; settings: 20 days
Procedure: as §3, with “metformin. The stock solution of metformin (MP Biomedicals, Solon, Ohio) was freshly prepared in sterile triple distilled water before each experiment. Cells treated with equal volume of vehicle were used as control. Cell culture medium was changed on every fourth day.” for “metformin.”
To test the effect of metformin in neuroblastoma spheroid formation, SK-N-BE(2) cells were grown in stem cell specific medium on ultra-low attachment plates and the growth of spheroid formation was monitored For spheroid formation assays, SK-N-BE(2) cells were seeded at density of 1000 cells per well in six-well plate in stem cell-specific medium with or without metformin (0.1, 0.5, 1, 10 and 20 mM). After 20 days, pictures of formed spheroids were taken and the number of spheroids equal to or larger than 100 μm in size (termed primary spheroids) was counted (FIG. 7 at A and B). […] Secondary spheroid formation (as an indicator of self-renewal potential of neuroblastoma spheres) was analyzed. After 20 days, the number of formed secondary spheroids (equal or larger than 100 μm in size) was counted and plotted (FIG. 7 at C).

Compound: CN(C)C(=N)NC(=N)N [metformin, N′,N′-dimethylbiguanide]
- size of the subcutaneous tumor vs control [1]: less
- cleaved caspase-3 signals (apoptotic cell death) (SK-N-BE(2) cells [2]): present in both sox2-expressing and sox2-nonexpressing cells
- cleaved caspase-3 signal in sox2-expressing cells of spheroids (SK-N-BE(2) spheroids): induced apoptotic death in spheroids
- level of sox2 protein (sox2): dose dependently decreased
- cytoplasmic cleaved caspase-3 signals in tumor tissues (SK-N-BE(2) tumors): present
- level of nanog protein (nanog): dose dependently decreased
- oct4 protein expression (oct4): No change
- secondary spheroid formation (SK-N-BE(2) cells [3]): significantly inhibited secondary spheroid formation
- number of primary spheroids vs control (SK-N-BE(2) cells [4]; metformin 0.1 mM): similar
- primary spheroid formation (SK-N-BE(2) cells [4]; metformin 0.5 mM and higher concentrations): reduced primary spheroid formation significantly
- formation of primary spheroids (equal to or larger than 100 μm) (SK-N-BE(2) cells [4]; metformin 0.1, 0.5, 1, 10 and 20 mM, overall vs control): significantly decreased the formation of primary neuroblastoma spheroids in a dose dependent manner

Source: patent publication US20170049726A1, “METFORMIN IN TREATMENT OF NEUROBLASTOMA” (UNIVERSITY OF SOUTH CAROLINA, priority 2015, published 2017)
